ChEMBL document CHEMBL1201862, “PubChem BioAssay data set” (2004)
Calls of active or inactive are those of the source.

Assays:
Kallikrein-7 = Kallikrein-7 (Homo sapiens, UniProt P49862); assay: Fluorescence Intensity-based biochemical primary high throughput dose response assay to identify activators of kallikrein-7 (K7) zymogen.
[1] = HIV Env cell-cell fusion inhibitors, dose response, HIV entry, plate reader, dry powder (AID 687023); assay type: functional, cell-based
[2] = inhibitors of orthopox intermediate gene expression, dose response, cell-based, single fluorophore reporter, dry powder (AID 1117271); assay type: functional
[3] = A549 cell cytotoxicity, dose response, CellTiter-Glo luminescence, dry powder, set 17 (AID 1117284); assay type: functional, cell-based
[4] = Orthopox viral replication plaque formation Measured in Cell-Based and Microorganism Combination System Using Imaging - 2142-05_Inhibitor_Dose_DryPowder_Activity.; assay type: functional
[5] = Single fluorophore orthopox expression reporter, late gene expression Measured in Cell-Based and Microorganism Combination System Using Plate Reader - 2142-08_Inhibitor_Dose_DryPowder_Activity.; assay type: functional
[6] = target: T1, Low molecular weight phosphotyrosine protein phosphatase (Homo sapiens, UniProt P24666); assay: LMPTP phosphatase inhibitors, colorimetric pNPP readout, dose response, orthogonal assay, biochemical, absorbance, pNPP substrate, LMPTP-A isoform, set 2 (AID 743308); assay type: functional
T1 sequence (P24666 whole entry): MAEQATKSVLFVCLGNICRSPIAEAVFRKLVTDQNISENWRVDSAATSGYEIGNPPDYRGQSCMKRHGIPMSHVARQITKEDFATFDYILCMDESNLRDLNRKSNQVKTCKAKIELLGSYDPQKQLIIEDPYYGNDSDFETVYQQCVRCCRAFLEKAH

[7] = target: T1, Low molecular weight phosphotyrosine protein phosphatase; assay: LMPTP phosphatase inhibitors, dose response, biochemical, OMFP substrate, fluorescence intensity, set 2 (AID 743307); assay type: functional
[8] = P. falciparum 3D7-ScDHODH growth inhibitors, dose response, SYBR Green, dry powder samples (AID 1159570); assay type: functional, cell-based;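 further: parasite growth measured after 72 hours of compound exposure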
[9] = P. falciparum Dd2 growth inhibitors, dose response, SYBR Green, dry powder samples (AID 1159566); assay type: functional, cell-based;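 further: potency for growth inhibition with lower SYBR green DNA signal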
[10] = P. falciparum ATP4 D1247Y mutant growth inhibitors, dose response, NITD609-resistant line, SYBR Green, dry powder (AID 1159571); assay type: functional, cell-based;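 further: parasites synchronized at ring stage by sorbitol before testing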
[11] = P. falciparum Dd2 growth inhibitors, dose response, SYBR Green, dry powder samples, set 9 (AID 1159568); assay type: functional, cell-based
[12] = Plasmodium falciparum Dd2 Sybr green parasite growth Measured in Cell-Based and Microorganism Combination System Using Plate Reader - 2153-01_Inhibitor_Dose_DryPowder_Activity_Set3.; assay type: functional
[13] = P. falciparum Dd2 growth inhibitors, dose response, SYBR Green, cherry-picked samples (AID 1159567); assay type: functional, cell-based
[14] = HepG2 cell cytotoxicity, dose response, cytotoxicity control, plate reader, dry powder samples (AID 1159569); assay type: functional, cell-based;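 further: inhibitor potency with signal falling toward the positive control level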
[15] = HepG2 cell cytotoxicity, dose response, cytotoxicity control, cherry-picked samples (AID 1159577); assay type: functional, cell-based
[16] = P. falciparum Dd2 growth inhibitors, dose response, SYBR Green, dry powder samples, set 4 (AID 1159572); assay type: functional, cell-based
[17] = CellTiter-Glo luminescent dose response of DLD-1 viability loss (AID 1117352); assay type: functional
[18] = RKO cell viability reduction, dose response, CellTiter-Glo luminescence (AID 1117322); assay type: functional
BJ [19] = assay: cytotoxicity toward BJ-TERT fibroblasts, dose response, cell-based, RAS-independent, luminescence (AID 1933); assay type: functional; details: Homo sapiens
[20] = SNU-C1 cell viability reduction, dose response, CellTiter-Glo luminescence (AID 1117323); assay type: functional, cell-based
[21] = HeLa 4N DNA content increase, dose response, cell-based, IC50 (AID 1117351); assay type: functional
[22] = cytotoxicity toward HCT116 cells – cell-based, CellTiter-Glo luminescence, IC50, dose response (AID 1117332); assay type: functional; details: HCT-116
BJ [23] = assay: cytotoxicity toward BJ-TERT-LT-ST fibroblasts, dose response, cell-based, RAS-independent, luminescence (AID 1935); assay type: functional; details: Homo sapiens;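 further: BJ fibroblasts immortalized with TERT plus LT and ST oncogenes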
[24] = HCT116 cell viability decrease, GSK3B pretreatment – CellTiter-Glo, IC50, dose response (AID 1117339); assay type: functional; details: HCT-116
BJ [25] = assay: cells; assay type: functional, cell-based; details: Homo sapiens
BJ [26] = assay: cytotoxicity toward Ras-transformed BJeLR fibroblasts, dose response, cell-based, alamar blue fluorescence, cherrypicked samples (AID 2631); assay type: functional; details: Homo sapiens;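 further: confirmatory dose-response assay in RAS-dependent BJ fibroblasts engineered with TERT, LT and ST, with cytotoxicity read by fluorescence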
[27] = cytotoxicity toward HT-29 cells – cell-based, CellTiter-Glo luminescence, IC50, dose response (AID 1117330); assay type: functional
[28] = Concentration-dependent survival of SW480 colon cancer line, luminescence detection with CellTiter-Glo, half-maximal inhibitory concentration (AID 1117338); assay type: functional
[29] = cytotoxicity toward Colo320 cells – cell-based, CellTiter-Glo luminescence, IC50, dose response (AID 1117334); assay type: functional; details: COLO 320
[30] = cytotoxicity toward DRD oncogenic fibroblasts, dose response, cell-based, non-viral oncogenic, luminescence (AID 1934); assay type: functional; details: Homo sapiens
[31] = HeLa 2N DNA content increase, dose response, cell-based, IC50 (AID 1117349); assay type: functional
cells = assay type: functional, cell-based; details: INS-1E
[32] = Dose-response inhibition of insulin secretion in a rat insulinoma line at 5 mM glucose (AID 1117331); assay type: functional, cell-based; details: INS-1E

Sequence of Kallikrein-7 (P49862 whole entry, the tested form may be a part): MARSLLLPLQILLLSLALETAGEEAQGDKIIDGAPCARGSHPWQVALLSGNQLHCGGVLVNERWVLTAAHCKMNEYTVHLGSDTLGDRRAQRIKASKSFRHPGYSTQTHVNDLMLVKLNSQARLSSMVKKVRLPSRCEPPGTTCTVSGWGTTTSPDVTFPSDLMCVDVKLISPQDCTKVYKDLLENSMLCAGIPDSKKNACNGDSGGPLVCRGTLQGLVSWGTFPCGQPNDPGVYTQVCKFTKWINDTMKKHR

For CN(C)c1ccc(-c2cccc3nccn23)cc1, the EC50 (Kallikrein-7) was > 69500 nM (inactive).
With Cc1noc(C)c1S(=O)(=O)Nc1cccc2c1O[C@H](CN(C)Cc1ccc(C(F)(F)F)cc1)[C@@H](C)CN([C@@H](C)CO)C2=O the AC50 [1] was > 70000 nM (inactive).
With Cc1ccccc1-c1ccc(CN(C)C[C@@H]2Oc3cc(C#C[C@@H](C)O)ccc3S(=O)(=O)N([C@@H](C)CO)C[C@@H]2C)cc1 the AC50 [2] was 1650 nM (active), the AC50 [3] was 34600 nM (active) and the AC50 [4] was 2000 nM (active). The AC50 [5] was 768 nM (active).
For Cc1ccc(-c2cc(NCCCN3CCCCC3)c3ccccc3n2)cc1, the IC50 [6] was 2990 nM (active) and the IC50 [7] was 1340 nM (active).
For COc1ccccc1NC(=O)Nc1ccc2c(c1)OC[C@@H](C)N(Cc1ccccc1Cl)C[C@@H](C)[C@H](OC)CN(C)C2=O, the AC50 [8] was 874 nM (active), the AC50 [9] was 16 nM (active) and the AC50 [10] was 220 nM (active). For the same molecule, the AC50 [11] was 30.5 nM (active), the AC50 [12] was 181 nM (active) and the AC50 [13] was < 300 nM (active).
In the case of COc1ccc2c3c([nH]c2c1)[C@H](CO)N(C(=O)Cc1ccccc1)CC31CCN(C(=O)Nc2ccccc2F)CC1, the AC50 [14] is reported as > 100000 nM (inactive), the AC50 [8] is reported as 97.7 nM (active) and the AC50 [9] is reported as 208 nM (active). The AC50 [10] was 123 nM (active), the AC50 [15] was 25200 nM (active) and the AC50 [16] was 277 nM (active). The AC50 [13] was 472 nM (active).
In the case of COCc1c(C(C)C)nc(C(C)C)c(/C=C/[C@@H](O)C[C@@H](O)CC(=O)O)c1-c1ccc(F)cc1 [CERIVASTATIN SODIUM], the IC50 [17] is reported as 2510 nM (active), the IC50 [18] is reported as 1010 nM (active) and the EC50 (BJ [19]) is reported as 339 nM (inconclusive). The IC50 [20] was 1870 nM (active), the IC50 [21] was > 10000 nM (inactive) and the IC50 [22] was 240 nM (active). The EC50 (BJ [23]) was 356 nM (inconclusive), the IC50 [24] was 52.9 nM (active) and the EC50 (BJ [25]) was 347 nM (inconclusive). For the same molecule, the EC50 (BJ [26]) was < 104 nM (active), the IC50 [27] was 1210 nM (active) and the IC50 [28] was 143 nM (active). For the same molecule, the IC50 [29] was 1920 nM (active), the EC50 [30] was 338 nM (inconclusive) and the IC50 [31] was > 10000 nM (inactive).
With CC(C)(C)c1nnc(NS(=O)(=O)c2ccccc2)s1 [GLYBUZOLE] the IC50 (cells) was > 33300 nM (inactive) and the IC50 [32] was 13100 nM (inactive).
